Assay results from patent US20260315431A1, “NANOMATERIAL ENCAPSULATED BIOFILM INHIBITORS FOR DENTAL CARIES TREATMENT” (THE UAB RESEARCH FOUNDATION, priority 2023, published 2026).
In brackets after ≈: the same amount, converted by molar mass. Like-named read-outs stand apart in the source and are kept apart here.

Tests used:
[1] = tested on: S. mutans UA159; assay: Biofilm inhibition, S. mutans UA159 (crystal violet, OD562); assay type: cell-based, Streptococcus mutans; settings: for IC50 / inhibition at 50 µM: Streptococcus mutans; for inhibition at 50 µM: UA159, 50 μM; for S. mutans biofilm inhibition: 50 μM
Experimental: (§1) The bacterial strains, S. mutans UA159, S. gordonii DL1, and S. sanguinis SK36 were inoculated statically at 37° C. under 5% CO2 in Todd Hewitt Broth (THB) for 24 h. The cultures were then diluted with fresh THB (1:5) and reinoculated until optical density at 470 nm (OD470) reached 1. The optical density was read using BioTek 800TS microplate reader at 470 nm for bacterial growth and 562 nm for biofilm stained with crystal violet. Data was plotted in Graphpad Prism9.
Biofilm inhibition assays. Biofilm inhibition assays were performed in polystyrene microtiter 96 well plates. Stock solutions were prepared in chemically defined medium (CDM, JRH Biosciences, Lenexa, KS) with 2% sucrose, 1% bacteria cultures and various concentrations of the small molecule inhibitors to examine their activity against biofilm formation as described^69, 70. These stocks were assayed in 96 well plates in triplicate and incubated at 37° C. and 5% CO2 for 16 h. After reading optical density for bacterial growth, the plate was gently washed with water, dried, and stained with crystal violet, and then gently rinsed again with deionized water leaving the stained biofilm at the bottoms of the wells. Biofilms was dissolved in 200 μL of 30% acetic acid and absorbance at 562 nm was used read to determine biofilm biomass. Each assay was carried out at least in triplicate. Biofilm inhibitory concentration (IC50) of the compounds was determined by serial dilutions.
(§2) All bacterial strains (S. mutans UA159, S. gordonii DL1, and S. sanguinis SK36) were inoculated statically at 37° C. under 5% CO2 environment in Todd Hewitt Broth (THB) for 24 h^[61]. The cultures were then diluted with fresh THB (1:5) and reinoculated until the optical density at 470 nm reaches 1. The optical density was read using BioTek 800 TS absorbance reader at 470 nm for bacterial growth and 562 nm for biofilm stained with crystal violet. Data was plotted in Prism 10.0.2.
Biofilm inhibition assays were performed in polystyrene microtiter 96-well plates. Stock solutions were prepared in chemically defined medium (CDM) with 1% sucrose, 1% bacteria cultures and various concentrations of the small molecule inhibitors to examine their activity against biofilm formation as described^[62, 63]. These stocks were assayed in 96 well plates in triplicate and incubated at 37° C. and 5% CO2 for 16 h. After reading optical density for bacterial growth, the plate was washed, dried, and stained with 0.1% crystal violet which was again rinsed well with deionized water leaving the stained biofilm at the bottoms of the wells. This biofilm was dissolved in 200 μL of 30% acetic acid and absorbance at 562 nm was read to determine amount of biofilm formation. Each assay was carried out at least in triplicate. Biofilm inhibitor concentration (IC50) of the compounds was determined by serial dilutions from 0 μM-50 μM (1% DMSO).

[2] = tested on: S. mutans UA159; assay: Planktonic growth, S. mutans UA159 (OD470); assay type: cell-based, Streptococcus mutans; settings: for inhibition at 50 µM: Streptococcus mutans, UA159, read-out: planktonic growth inhibition of S. mutans, 50 μM
Experimental: as §1
(§3) S. mutans, S. gordonii, and S. sanguinis growth assays. Effects of compounds on S. mutans and commensal bacterial growth were evaluated using the growth assay as described^69. S. mutans UA159, S. gordonii DL1, S. sanguinis SK36, cultures were grown for 24 h under 5% CO2 at 37° C. These cultures were then reinoculated with fresh THB (1:5) until OD470=1 when the bacteria were ready to be used. Different concentrations of the inhibitor were assayed in chemically defined media (CDM) with 1% of the bacteria, 1% sucrose and 1% DMSO in 96 well plates. The 96 well plates were incubated under 5% CO2 at 37° C. for 16 h. Growth of the bacteria was read after 16 h at OD470. Each assay was carried out at least in triplicate.
as §2
as §3, with “Effects” for “S. mutans, S. gordonii, and S. sanguinis growth assays. Effects”, “PEHA5, PEHA6, HA5 or HA6” for “compounds”, “described^[62].” for “described^69.”, “PEHA5, PEHA6, HA5 or HA6” for “inhibitor”, “CDM” for “chemically defined media (CDM)”

[3] = Solubility in water containing 1% DMSO (UV spectroscopy); assay type: physicochemical; settings: for solubility compared with IIIC5: comparison with IIIC5 (25 μg/mL); for solubility: organic solvent or mixture, water containing 1% DMSO
Experimental: Solubility of MA1-6 and HA2-6 were determined as reported^46 (Table 1).
General considerations. ^1H-NMR and ^13C-NMR spectra were recorded on Bruker Avance Neo 400 and Avance II 700 spectrometers using TMS or appropriate solvent signals as internal standard. The chemical shift values are given in parts per million (ppm) relative to the internal standard used and the coupling constants (J) are given in hertz (Hz). High resolution mass spectra (HRMS) were recorded using Waters AutoSpec-Ultima™ NT magnetic sector mass spectrometer with Electron Impact (EI) Ionization source. The mass analyzer is an electric-magnetic-electric (EBE) sector (a double focusing sector). Anhydrous solvents used for reactions were purchased in Sure-Seal™ bottles from Aldrich chemical company. Other chemical reagents were purchased from Aldrich or Fisher chemical companies and used as received. Reactions were monitored with thin layer chromatography (TLC), which was done on silica gel plates with fluorescent indicator (Silicycle, silica gel, UV254, 25 μm plates). The TLC spots were observed under UV light with the wavelengths 254 nm and 365 nm. The reaction mixtures were purified by column chromatography using Si gel (32-63 μm) from Dynamic Absorbent, Inc. Melting points were determined on a Mel-Temp II melting point apparatus and are uncorrected. All tested compounds have ≥95% purity as determined by HPLC. HPLC traces were obtained using Shimadzu SPD-M20A. Solubility of compounds were determined by UV-spectroscopy method using Agilent Cary 60 UV-Vis spectrophotometer. HPLC analysis of the final compounds were conducted using Kinetex 5 μm C18 100 Å, LC Column 150×4.6 mm, compound=3 mM, 20 μL injection, solvent: mobile phase buffer, Conditions: 60% MeCN/40% H2O/0.1% Formic acid (isocratic), HPLC method 0-10 min, Signals were analyzed using a 254 nm UV detector. A chromatogram of Mobile Phase Buffer (20 μL) was obtained for comparison.

[4] = water, 1% dmso; cited from earlier work
[5] = S. mutans UA159 biofilm, read-out: Biofilm IC50

SMILES	IC50 ([1]; UA159, read-out: Biofilm IC50) [µM]	solubility [3] [µg/mL]	inhibition at 50 µM [2] [%]	further results
O=C(C=Cc1ccccc1)c1ccccc1O [Compound 3a, 1-(2-Hydroxyphenyl)-3-phenyl-2-propen-1-one]	> 300	–	–	–
COc1ccc(C=CC(=O)c2ccccc2O)cc1 [Compound 3b, 1-(2-Hydroxyphenyl)-3-(4′-methoxyphenyl)-2-propen-1-one]	> 300	–	–	–
COc1ccc(C=CC(=O)c2ccccc2O)cc1OC [Compound 3c, 3-(3′,4′-Dimethoxyphenyl)-1-(2-hydroxyphenyl) prop-2-en-1-one]	> 300	–	–	–
COc1cc(C=CC(=O)c2ccccc2O)cc(OC)c1 [Compound 3d, 3-(3′,5′-Dimethoxyphenyl)-1-(2-hydroxyphenyl) prop-2-en-1-one]	> 300	–	–	–
COc1cc(OC)c(OC)cc1C=CC(=O)c1ccccc1O [Compound 3e, 1-(2-Hydroxyphenyl)-3-(2′,4′,5′-trimethoxyphenyl) prop-2-en-1-one]	> 300	–	–	–
COc1cc(C=CC(=O)c2ccccc2O)cc(OC)c1OC [Compound 3f, 1-(2-Hydroxyphenyl)-3-(3′,4′,5′-trimethoxyphenyl) prop-2-en-1-one]	181	–	–	inhibition at 50 µM [1]: 40%; planktonic growth of S. mutans ([2]; 50 μM): no growth inhibition
O=C1/C(=C/c2ccc(O)cc2)Oc2ccccc21 [HA2, 2-[(4′-Hydroxyphenyl)methylidene]-2,3-dihydro-1-benzofuran-3-one]	18.8 ± 2.36	18.9 (≈ 79.5 µM)	60	solubility compared with IIIC5 [3]: lower solubility than IIIC5; inhibition at 50 µM [1]: > 95%; planktonic growth inhibition of S. mutans ([2]; 50 μM): 70%
O=C1/C(=C/c2ccc(O)c(O)c2)Oc2ccccc21 [HA3, 2-[(3′,4′-Dihydroxyphenyl)methylidene]-2,3-dihydro-1-benzofuran-3-one]	30.7	–	40	solubility ([3]; UV spectroscopy): 81.6 µg/mL (≈ 321 µM); inhibition at 50 µM [1]: ~80%; IC50 [1, 5]: 30.7 µM
O=C1/C(=C/c2cc(O)cc(O)c2)Oc2ccccc21 [HA4, 2-[(3′,5′-Dihydroxyphenyl)methylidene]-2,3-dihydro-1-benzofuran-3-one]	94.2	–	30	solubility ([3]; UV spectroscopy): 76.5 µg/mL (≈ 301 µM); S. mutans biofilm inhibition [1]: did not show significant biofilm inhibition; IC50 [1, 5]: 94.2 µM
O=C1C(=Cc2ccccc2)Oc2ccccc21 [MA1, 2-(Phenylmethylidene)-2,3-dihydro-1-benzofuran-3-one]	33.6 ± 0.53	–	80	solubility compared with IIIC5 [3]: lower solubility than IIIC5; solubility ([3]; UV spectroscopy): 8.51 ± 2 µg/mL (≈ 38.3 µM)
COc1ccc(/C=C2\Oc3ccccc3C2=O)cc1 [MA2, 2-[(4′-Methoxyphenyl)methylidene]-2,3-dihydro-1-benzofuran-3-one]	108	16.2 (≈ 64.3 µM)	–	solubility compared with IIIC5 [3]: lower solubility than IIIC5; IC50 ([1]; UA159, read-out: Biofilm IC50 (unit inferred)): 108 µM
COc1ccc(/C=C2\Oc3ccccc3C2=O)cc1OC [MA3, 2-[(3′,4′-Dimethoxyphenyl)methylidene]-2,3-dihydro-1-benzofuran-3-one]	49.4	36.3 (≈ 128 µM)	–	S. mutans biofilm inhibition [1]: inactive; IC50 [1, 5]: 49.4 µM
COc1cc(/C=C2\Oc3ccccc3C2=O)cc(OC)c1 [MA4, 2-[(3′,5′-Dimethoxyphenyl)methylidene]-2,3-dihydro-1-benzofuran-3-one]	> 300	19 (≈ 67.2 µM)	–	solubility compared with IIIC5 [3]: lower solubility than IIIC5
COc1cc(OC)c(OC)cc1/C=C1\Oc2ccccc2C1=O [MA5, 2-[(2′,4′,5′-Trimethoxyphenyl)methylidene]-2,3-dihydro-1-benzofuran-3-one]	52.8	42.4 (≈ 136 µM)	30	inhibition at 50 µM [1]: 60%; IC50 [1, 5]: 52.8 µM
COc1cc(/C=C2\Oc3ccccc3C2=O)cc(OC)c1OC [MA6, 2-[(3′,4′,5′-Trimethoxyphenyl)methylidene]-2,3-dihydro-1-benzofuran-3-one]	> 300	44.7 (≈ 143 µM)	–	–
O=C(O)c1ccccc1O [Salicylic acid]	–	–	–	solubility [4]: 1880 ± 30 µg/mL (≈ 13600 µM)
